Common to all, as to type: cell-based, mouse
Data set [1] deals with breast carcinoma F3II cells. Nature of the data set: Effect on quiescent F3II cells / cytotoxicity (toluidine staining and MTT assay). The note with it: absence of FBS; for cytotoxic effect: 100 μM, 24 hours, semiconfluent monolayers, toluidine and MTT assay; for IC50: Quiescent Cells, F3II, 24 hs. Here is the method: (§1) The antiproliferative effect of the above mentioned compounds on breast carcinoma F3II cells is disclosed in the present example. The synthesized compounds are purine nucleoside derivatives which present chemical modifications in either the ribose and/or in the base. These modifications mainly consisted in acetylations of positions 2′-3′ of the ribose, varying the number of carbon atoms of the acyl substituents in position 5′. The cells were treated for 72 hours in the presence of fetal bovine serum 10% with different doses of the compounds, with the aim of determining the inhibitory concentration 50% (IC50). The cell growth was estimated by toluidine test, for which the cell monolayers were fixed with formalin (Formol 10%) and stained with toluidine blue 0.5%. Subsequently, the stained cells were thoroughly washed with PBS and solubilized with 1% SDS. Finally, the number of cells was estimated by measuring the absorbance values at 595 nm. The IC50 values of the compounds Nucl 1, Nucl 4 and Nucl 5, both for cells in the exponential growth phase and for quiescent cells, are depicted in Table 2.
In addition, the effect of the analogs showing antiproliferative effect on quiescent cells, was studied in order to discriminate between an antitumoral effect and an unspecific cytotoxic effect. For this purpose, the semiconfluent cell monolayers were incubated for 24 hours in the absence of FBS with the analogs Nucl 1, Nucl 4 and Nucl 5, at a concentration of 100 μM. Subsequently, the cells were fixed and stained with toluidine in order to determine the number of cells. Simultaneously, the cytotoxic effect was determined by the MTT assay.

The subject of data set [2] is breast carcinoma F3II cells. As to the kind of experiment: Monolayer wound assay of tumor cell migration. The note with it: for No of migrating cells: overnight, MEM with 10% FBS. Here is the method:
The present assay consists in the determination of the antimigration effect of the selected compounds on the breast carcinoma cells migration. Cell motility is a key process in the invasion and tumor metastasis processes and it is closely regulated by the Rho-GTPases family, particularly by Rac.
Tumor cell migration in vitro was measured by the “monolayer wound” assay described previously (Alonso D F, Farias E F, Urtreger A, Ladeda V, Vidal M C and Bal de Kier Joffé E: Characterization of F3II, a mammary sarcomatoid carcinoma cell line originated from a mouse adenocarcinoma. J. Surgh. Oncol 1996, 62: 288-297). 0.5 mm width lines were made in confluent monolayers. After washing with PBS, the tumor cells were incubated overnight in MEM with 10% FBS and the monolayers were fixed and stained with methylene blue. The number of cells that moved along the free space were counted by using a 0.36 mm^2 graded grid, using a magnification of 100×, in 3 independent fields per each line.
Doses from 1 to 50 μM of the compounds were assessed, thereby finding a saturation of the antimigration effect in the 3 compounds studied, starting from 10 μM, obtaining an approximate inhibition of 30 to 50% respectively.

Data set [3] deals with breast carcinoma F3II cells. Nature of the data set: Antiproliferative effect on growing F3II cells (toluidine test). The note with it: 10% fetal bovine serum.
From the text: as §1, with “The cells were treated for 72 hours in the presence of fetal bovine serum 10% with different doses of the compounds, with the aim of determining the inhibitory concentration 50% (IC50).” left out

Marks after values point to notes of the source that are not given here.

Consider two molecules from patent US20090324708A1, “COMPOUND HAVING INHIBITORY ACTIVITY ON A RHO-GTPASE CELL PROTEIN, A PROCESS FOR OBTAINING THE SAME, PHARMACEUTICAL COMPOSITIONS COMPRISING THEREOF AND A METHOD FOR THE TREATMENT OF RHO-GTPASE CELL PROTEIN-MEDIATED CONDITION” (Universidad Nacional De Quilmes, priority 2006, published 2009).

What is called IC50 is the concentration at which inhibition is half-maximal. The inhibition is the relative decrease from the control value, in per cent. High values mean a response far below the control, low ones a response near the control.

Regarding `CC(=O)OC[C@H]1O[C@@H](n2cnc3c(=O)[nH]c(N)nc32)[C@H](OC(C)=O)[C@@H]1OC(C)=O` [Nucl 1, 2′,3′,5′-tri-O-acetyl-guanosine], the cytotoxic effect result in data set [1] is “In none of the cases a cytotoxic effect was observed”. The IC50 in data set [1] (Mus musculus) was greater than 100 µM; in data set [3] (Mus musculus, 48 hs, read-out: IC50 48 hs) it was 26 µM; in data set [3] (Mus musculus, 72 hs, read-out: IC50 72 hs), 68 µM. The “No of migrating cells” value in data set [2] (10 μM) is given as 97.7*. The molecule further yielded an inhibition at 10 µM in data set [2] (Mus musculus) of 32.2%.

With `CC(=O)OC[C@H]1O[C@@H](n2cnc3c(Cl)ncnc32)[C@H](OC(C)=O)[C@@H]1OC(C)=O` [Nucl 4, 6-chloro-2′,3′,5′-tri-O-acetyl-purine riboside], the cytotoxic effect entry in data set [1] is on record as “In none of the cases a cytotoxic effect was observed”. Moreover, the IC50 in data set [1] is greater than 100 µM; in data set [3] (48 hs, read-out: IC50 48 hs), 60 µM; in data set [3] (72 hs, read-out: IC50 72 hs), 56 µM. The “Inhibition % (cell migration)” value in data set [2] (10 μM) stood at 40.6%. For the same molecule, the “No of migrating cells” value in data set [2] (10 μM) is given as 85.5**.
